# Where a name gives a salt, the structure may show the parent alone.
# Tests used:
# [1] = test system: LPS-stimulated PBMC TNFα release; experiment: LPS-stimulated PBMC TNFα release assay; type: cell-based; conditions: human PBMCs, LPS 10 ng/ml, 18 h, TNFα by ELISA, at least three separate experiments, read-out: p38α inhibition (IC50 values), inhibition of TNFα release
# Description: LPS-Stimulated PBMC TNFα Release Assay.
# Peripheral Blood Mononuclear Cells (PBMCs) were isolated from healthy human volunteer blood using a standard density gradient centrifugation technique. Citrated blood was placed onto Histopaque™ and centrifuged. The PBMCs were removed from the density gradient interface and washed in phosphate buffered saline (PBS). The PBMCs were suspended in RPMI 1640 medium (without serum), dispensed into a 96-well plate and incubated at 37° C. for 3 h in a humidified incubator. After incubation, the medium was replaced (with medium containing 1% foetal bovine serum), and the plate incubated at 37° C., for 1 h, in the presence of test compound or the appropriate vehicle. LPS (10 ng/ml), or an appropriate vehicle control, was then added to the cells, and the plate returned to the incubator for 18 h. Cell-free supernatants were removed and assayed for TNFα levels using an ELISA kit from R&D Systems.
# A dose response curve to each test compound was performed and the effect of compound in each experiment was expressed as a percentage inhibition of the control TNFα release. Dose response curves were plotted and compound potency (IC50) was determined. Compounds were tested in at least three separate experiments.
# p38alpha = biological target: T1, p38alpha (Homo sapiens, UniProt Q16539); experiment: P38alpha enzyme inhibition assay (Alphascreen kinase activity assay); type: biochemical; conditions: 100 pM p38alpha, 250 μM ATP, 2 hours pre-incubation at 25° C., ATF-2 fusion protein substrate; read-out: p38α inhibition (IC50 values)
# T1 construct: purchased Invitrogen PV3304
# Description: P38alpha Enzyme Inhibition Assay.
# The inhibitory activity of compounds was determined using an Alphascreen® (Perkin Elmer) based kinase activity assay. Kinase reactions consisted of 25 mM HEPES pH 7.5, 10 mM MgCl2, 100 μM Na3VO4, 2 mM DTT, 0.05 mg/ml Tween 20, 100 pM p38alpha (Invitrogen, PV3304), 1% DMSO and 0.3 μg/ml ATF-2 fusion protein (New England Biolabs, 9224). Compounds were incubated under these conditions for 2 hours, at 25° C., prior to the initiation of the kinase activity by the addition of the 250 μM ATP. Reaction volumes were 20 uL. After 1 hr at 25° C. reactions were stopped by the adding 10 uL of 25 mM HEPES pH 7.5 containing 62.5 mM EDTA, 0.05% Triton X-100, 10% BSA and 0.83 ng/uL anti-phospho-ATF2 antibody (Abeam, ab28812). Detection was performed by measuring luminescence following the addition of Alphascreen Donor beads (Perkin Elmer 6765300) and Protein A Alphascreen Acceptor beads (Perkin Elmer 6760137), both at a final concentration of 20 ug/ml. IC50 values were determined from concentration-response curves.
# T1 sequence (Q16539 whole entry, the tested form may be a part): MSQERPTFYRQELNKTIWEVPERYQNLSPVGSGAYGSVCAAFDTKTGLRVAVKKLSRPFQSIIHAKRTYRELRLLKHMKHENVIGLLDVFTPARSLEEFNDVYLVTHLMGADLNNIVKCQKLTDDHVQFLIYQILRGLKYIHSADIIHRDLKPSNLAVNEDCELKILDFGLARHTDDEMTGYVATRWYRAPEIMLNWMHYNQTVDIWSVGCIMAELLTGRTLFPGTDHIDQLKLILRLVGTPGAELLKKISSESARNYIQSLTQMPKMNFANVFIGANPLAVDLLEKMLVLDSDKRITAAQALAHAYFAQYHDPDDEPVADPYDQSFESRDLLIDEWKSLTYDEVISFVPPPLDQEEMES
IC50 (p38alpha),SMILES,IC50 [1]
–,"CC(C)c1nnc2ccc(O[C@@H]3CC[C@H](NC(=O)Nc4cc(C(C)(C)C)nn4-c4ccc(OCCN5CCN(C)CC5)cc4)c4ccccc43)cn12 [Example 13, 1-(5-tert-Butyl-2-{4-[2-(4-methyl-piperazin-1-yl)-ethoxy]-phenyl}-2H-pyrazol-3-yl)-3-[(1S,4R)-4-(3-isopropyl-[1,2,4]triazolo[4,3-a]pyridin-6-yloxy)-1,2,3,4-tetrahydro-naphthalen-1-yl]-urea, formic acid salt]",100 to 1000 nM
< 10 nM,"Cn1nc(C(C)(C)C)cc1NC(=O)N[C@H]1CC[C@@H](Oc2ccc3nnc(-c4c(Cl)cccc4Cl)n3c2)c2ccccc21 [Example 33, 1-(5-tert-Butyl-2-methyl-2H-pyrazol-3-yl)-3-{(1S,4R)-4-[3-(2,6-dichlorophenyl)-[1,2,4]triazolo[4,3-a]pyridin-6-yloxy]-1,2,3,4-tetrahydronaphthalen-1-yl]-urea]",< 10 nM
< 10 nM,"CC(C)c1nnc2ccc(O[C@@H]3CC[C@H](NC(=O)Nc4cc(C(C)(C)C)nn4C4CCN(C)CC4)c4ccccc43)cn12 [Example 17, 1-[5-tert-Butyl-2-(1-methyl-piperidin-4-yl)-2H-pyrazol-3-yl]-3-[(1S,4R)-4-(3-isopropyl-[1,2,4]triazolo[4,3-a]pyridin-6-yloxy)-1,2,3,4-tetrahydro-naphthalen-1-yl]-urea]",100 to 1000 nM
< 10 nM,"CN(C)CCn1nc(C(C)(C)C)cc1NC(=O)N[C@H]1CC[C@@H](Oc2ccc3nnc(-c4c(Cl)cccc4Cl)n3c2)c2ccccc21 [Example 28, 1-[5-tert-Butyl-2-(2-dimethylamino-ethyl)-2H-pyrazol-3-yl]-3-{(1S,4R)-4-[3-(2,6-dichloro-phenyl)-[1,2,4]triazolo[4,3-a]pyridin-6-yloxy]-1,2,3,4-tetrahydro-naphthalen-1-yl}-urea formate salt]",< 10 nM
< 10 nM,"CC(C)c1nnc2ccc(O[C@@H]3CC[C@H](NC(=O)Nc4cnn(C(C)(C)C)c4)c4cc(F)ccc43)cn12 [Example 21, 1-(1-tert-Butyl-1H-pyrazol-4-yl)-3-[(1S,4R)-7-fluoro-4-(3-isopropyl-[1,2,4]triazolo[4,3-a]pyridin-6-yloxy)-1,2,3,4-tetrahydro-naphthalen-1-yl]-urea]",–
< 10 nM,"CC(C)(C)c1cc(NC(=O)N[C@H]2CC[C@@H](Oc3ccc4nnc(-c5ccccc5Cl)n4c3)c3ccccc32)n(CCN2CCOCC2)n1 [Example 32, 1-[5-tert-Butyl-2-(2-morpholin-4-yl-ethyl)-2H-pyrazol-3-yl]-3-{(1S,4R)-4-[3-(2-chloro-phenyl)-[1,2,4]triazolo[4,3-a]pyridin-6-yloxy]-1,2,3,4-tetrahydro-naphthalen-1-yl}-urea formate salt]",< 10 nM
< 10 nM,"CC(C)c1nnc2ccc(O[C@@H]3CC[C@H](NC(=O)Nc4cc(C(C)(C)C)nn4-c4ccc5cn(CCN6CCOCC6)nc5c4)c4ccccc43)cn12 [Example 25, 1-{5-tert-Butyl-2-[2-(2-morpholin-4-yl-ethyl)-2H-indazol-6-yl]-2H-pyrazol-3-yl}-3-[(1S,4R)-4-(3-isopropyl-[1,2,4]triazolo[4,3-a]pyridin-6-yloxy)-1,2,3,4-tetrahydro-naphthalen-1-yl]-urea]",–
< 10 nM,"COc1ccc(-n2nc(C(C)(C)C)cc2NC(=O)N[C@H]2CC[C@@H](Oc3ccc4nnc(C(C)C)n4c3)c3ccccc32)cc1 [Example 1, 1-(5-tert-Butyl-2-(4-methoxy-phenyl)-2H-pyrazol-3-yl)-3-[(1S,4R)-4-(3-isopropyl-[1,2,4]triazolo[4,3-a]pyridin-6-yloxy)-1,2,3,4-tetrahydro-naphthalen-1-yl]-urea]",< 10 nM
< 10 nM,"CC(C)c1nnc2ccc(O[C@@H]3CC[C@H](NC(=O)Nc4cc(C(C)(C)C)nn4-c4cccc(N5CCOCC5)c4)c4ccccc43)cn12 [Example 23, 1-[5-tert-Butyl-2-(3-morpholin-4-yl-phenyl)-2H-pyrazol-3-yl]-3-[(1S,4R)-4-(3-isopropyl-[1,2,4]triazolo[4,3-a]pyridin-6-yloxy)-1,2,3,4-tetrahydro-naphthalen-1-yl]-urea]",< 10 nM
< 10 nM,"CC(C)c1nnc2ccc(O[C@@H]3CC[C@H](NC(=O)Nc4cc(C(C)(C)C)nn4-c4ccc(CO)cc4)c4ccccc43)cn12 [Example 11, 1-[5-tert-Butyl-2-(4-hydroxymethyl-phenyl)-2H-pyrazol-3-yl]-3-[(1S,4R)-4-(3-isopropyl-[1,2,4]triazolo[4,3-a]pyridin-6-yloxy)-1,2,3,4-tetrahydro-naphthalen-1-yl]-urea]",< 10 nM
10 to 100 nM,"CC(C)c1nnc2ccc(O[C@H]3CC[C@H](NC(=O)Nc4cc(C(C)(C)C)nn4-c4ccc(C#N)cc4)c4ccccc43)cn12 [Example 14, 1-[5-tert-Butyl-2-(4-cyano-phenyl)-2H-pyrazol-3-yl]-3-[(1S,4S)-4-(3-isopropyl-[1,2,4]triazolo[4,3-a]pyridin-6-yloxy)-1,2,3,4-tetrahydro-naphthalen-1-yl]-urea]",< 10 nM
< 10 nM,"CC(C)c1nnc2ccc(O[C@@H]3CC[C@H](NC(=O)Nc4cc(C(C)(C)C)nn4C4CCNCC4)c4ccccc43)cn12 [Example 16, 1-(5-tert-Butyl-2-piperidin-4-yl-2H-pyrazol-3-yl)-3-[(1S,4R)-4-(3-isopropyl-[1,2,4]triazolo[4,3-a]pyridin-6-yloxy)-1,2,3,4-tetrahydro-naphthalen-1-yl]-urea]",–
< 10 nM,"CC(C)(C)c1cc(NC(=O)N[C@H]2CC[C@@H](Oc3ccc4nnc(-c5ccccc5Cl)n4c3)c3ccccc32)n(CCO)n1 [Example 31, 1-[5-tert-Butyl-2-(2-hydroxy-ethyl)-2H-pyrazol-3-yl]-3-{(1S,4R)-4-[3-(2-chloro-phenyl)-[1,2,4]triazolo[4,3-a]pyridin-6-yloxy]-1,2,3,4-tetrahydro-naphthalen-1-yl}-urea]",< 10 nM
–,"CC(C)c1nnc2ccc(O[C@@H]3CC[C@H](NC(=O)Nc4cc(C(C)(C)C)nn4CCO)c4ccccc43)cn12 [Example 10, 1-[5-tert-Butyl-2-(2-hydroxy-ethyl)-2H-pyrazol-3-yl]-3-[(1S,4R)-4-(3-isopropyl-[1,2,4]triazolo[4,3-a]pyridin-6-yloxy)-1,2,3,4-tetrahydro-naphthalen-1-yl]-urea]",10 to 100 nM
100 to 500 nM,"Cc1ccc(-n2nccc2NC(=O)N[C@H]2CC[C@@H](Oc3ccc4nnc(C(C)C)n4c3)c3ccccc32)cc1 [Example 20, 1-[(1S,4R)-4-(3-Isopropyl-[1,2,4]triazolo[4,3-a]pyridin-6-yloxy)-1,2,3,4-tetrahydro-naphthalen-1-yl]-3-(2-p-tolyl-2H-pyrazol-3-yl)-urea]",–
100 to 500 nM,"Cc1ccc(-n2cc(NC(=O)N[C@H]3CC[C@H](Oc4ccc5nnc(C(C)C)n5c4)c4ccccc43)cn2)cc1 [Example 6, 1-[(1S,4S)-4-(3-Isopropyl-[1,2,4]triazolo[4,3-a]pyridin-6-yloxy)-1,2,3,4-tetrahydro-naphthalen-1-yl]-3-(1-p-tolyl-1H-pyrazol-4-yl)-urea]",–
< 10 nM,"CC(C)c1nnc2ccc(O[C@@H]3CC[C@H](NC(=O)Nc4cc(C(C)(C)C)nn4-c4ccc5cnn(CCN6CCOCC6)c5c4)c4ccccc43)cn12 [Example 24, 1-{5-tert-Butyl-2-[1-(2-morpholin-4-yl-ethyl)-1H-indazol-6-yl]-2H-pyrazol-3-yl}-3-[(1S,4R)-4-(3-isopropyl-[1,2,4]triazolo[4,3-a]pyridin-6-yloxy)-1,2,3,4-tetrahydro-naphthalen-1-yl]-urea]",–
